For one assay, the target named is Alpha1 receptor. The experiment in a line: In-Vitro Inhibition of Alpha1-Receptor Binding (3H-Prazosin). Also on record: species or system rat (male Wistar). The settings on record: 3H-Prazosin 0.5 nM, rat cortex, 25° C., 30 min; read-out: Receptor binding IC50 α1. The protocol:
In-Vitro Inhibition of Alpha1 -Receptor Binding, Radioactive-labelled ligand ^3 H-Prazosin is incubated with isolated cell-membrane fragments at 25° C. for a given period of time. Following completed incubation, the incubate is filtered through GF/B filters, which are rinsed following filtration to remove unspecifically adhered radioactivity. As opposed to low- molecular compounds, membrane fragments are not rinsed through the filters, the radioactivity bound to the filters indicates the amount of ligand bound specifically as well as nonspecifically to the membranes. The procedure is performed in ice bath. Polytron kinematica is rinsed with milli-Q-H2 O before and after use. Male Wistar rats, 150-200 g are decapitated, cortex is removed quickly and weighed (approx. 500 mg). Cortex is transferred to a centrifuging vial containing 10 ml ice-cold D2 buffer. Homogenization applying polytron kinematica (homogenizer) setting 6 for 20 sec. The homogenizer is rinsed with 10 ml D2 buffer in another centrifuging vial. The 10 ml rinsing buffer is added to the tissue vial. Centrifugation at 18,000 rpm for 12 min. at 4° C. This is repeated once. Final pellet is added to 400×vol. of same buffer. (Ex. 500 mg cortex in 200 ml D2 buffer). Can be stored for 30 min. at 0° C. 2,000 μl tissue 25 μl ^3 H-Prazosin (0.5 nM) 25 μl test substance/H2 O/blind Phentolamine (10 μM) Incubation for 30 min. at 25° C. 10 ml of ice-cold 0.9% NaCl is added to the tubes and filtered through GF/B filters (use gloves). This procedure is repeated. Filters are placed in counting vials and 4 ml opti-flour is added (perform in fume cupboard, use gloves). Counting is performed at window 0-19 of the betacounter (Pachard). […] Further, the analytical site is cleaned carefully every day after use. Dissolved in H2 O, EtOH, MeOH or DMSO and further diluted in H2 O. […] Most stock solutions are stable at 4° C. Attention should, however, be paid to any precipitation, change in colour etc. Test-substance dilutions are always prepared fresh every day. When weighing out test substances, it is attempted to weigh out approx. 1 mg of substance. Less than 0.8 mg must never be weighed out and only infrequently more than 2 mg (for economy reasons) dependent, however, on conc./ass.

Another assay has as its target Dopamine D2 receptor (Rattus norvegicus, UniProt P61169). The experiment in a line: In-Vitro Inhibition of Dopamine D2 Receptor Binding (3H-Spiroperidol). Also on record: species or system rat (male Wistar). The settings on record: 3H-Spiroperidol 0.05 nM, rat striatum, 37° C., 20 min. The protocol:
In-Vitro Inhibition of Dopamine D2 Receptor Binding,
Radioactive-labelled ligand ^3 H-Spiroperidol is incubated with isolated cell-membrane fragments at 37° C. for a given period of time. Following completed incubation, the incubate is filtered through GF/B filters which are rinsed following filtration to remove unspecifically adhered radioactivity. As opposed to low- molecular compounds, membrane fragments are not rinsed through the filters, the radioactivity bound to the filters is indicative of the amount of ligand bound specifically as well as nonspecifically to the membranes.
The procedure is performed in ice bath. Polytron kinematica is rinsed with milli-Q-H2 O before and after use. Male Wistar rats, 150-200 g are decapitated, striatum is removed quickly and weighed (approx. 50 mg). Striatum is transferred to a centrifuging vial containing 10 ml ice-cold D2 buffer. Homogenization is performed applying polytron kinematica (homogenizer) setting 6 for 20 sec. The homogenizer is rinsed with 10 ml D2 buffer in another centrifuging vial. The 10 ml rinsing buffer is added to the tissue vial. Centrifugation at 18,000 rpm for 10 min. at 4° C. Final pellet is transferred to 1,000×vol. of same buffer. (Ex. 50 mg striatum in 50 ml D2 buffer). Can be stored at 0° C. for at least 4 hours. Note that the tissue must homogeneous (uniform) before use. If not, brief homogenization is performed.
2,500 μl tissue (homogeneous)
25 μl ^3 H-Spiroperidol (0.05 nM)
25 μl test substance/H2 O/blind (Domperidone 0.2 μM)
Incubation for 20 min. at 37° C.-10 min. on ice bath.
10 ml ice-cold 0.9% NaCl is added to the tubes and filtered through GF/B filters (use gloves). This procedure is repeated. The filters are placed in counting vials and 4 ml opti-flour is added (perform in fume cupboard, use gloves). Counting is performed at window 0-19 of the beta-counter (Pachard). Note that receptor box and lid are rinsed thoroughly in H2 O after use to avoid contamination. Further, the analytical site is cleaned carefully every day after use.
Dissolved in H2 O, EtOH, MeOH or DMSO and further diluted in H2 O. The D2 binding will stand concentrations of up to approx. 20% of these solvents without affecting the binding. Most stock solutions are stable at 4° C., attention is, however, paid to any precipitation, change in colour etc. Test-substance dilutions are always made fresh every day. When weighing out test substances, it is attempted to weigh out approx. 1 mg of substance. Less than 0.8 mg must never be weighed out and only infrequently more than 2 mg (for economy reasons), dependent, however, on conc./assay.

The test system of assay [1] is acetic acid-induced writhings in mice. The assay is described as follows: Antagonism of Acetic Acid-Induced Writhings In Mice. The assay is classed as in vivo, mouse (NMRI). The settings on record: Mus musculus, sc; s.c. 30 min before acetic acid 0.5 per cent i.p.; 50 per cent protection. The protocol:
Antagonism of Acetic Acid-Induced Writhings In Mice
In mice i.p. injection of acetic acid induces a writhing syndrome which is antagonized by analgesics (Siegmund et al., 1957; Eckhardt et al., 1957).
Acetic acid 0.5 per cent is injected i.p. (0.15 ml/10 g body weight) to 6 mice (NMRI, either sex weighing 20-25 g) pretreated with physiological saline (controls) and to 6 mice pretreated with test substance. In the controls acetic acid induces a syndrome characterized by contraction of abdomen, turning of trunk and extension of hind limbs. Saline and test substances are administered s.c. 30 min. before acetic acid. The number of writhings is counted 5-15 min. after injection of acetic acid.
The activity is expressed as per cent protection: [formula]
The effect of active substances is evaluated by a dose response curve, log dose on the abscissa, and per cent protection on the ordinate. The potency is expressed as the dose (ED50 in mg/kg giving 50 per cent protection against writhings.
This test is used as a screening test for analgesics. Additional results from other screening tests are required to exclude active anti-writhing substances without analgesic effect.
A general note: An intraperitoneal irritant provokes the stretching counted in writhing tests.

pIC50: −log10 of the molar value. Counter-ions that a name gives are not always drawn.

Dopamine D2 receptor, sequence (P61169 whole entry): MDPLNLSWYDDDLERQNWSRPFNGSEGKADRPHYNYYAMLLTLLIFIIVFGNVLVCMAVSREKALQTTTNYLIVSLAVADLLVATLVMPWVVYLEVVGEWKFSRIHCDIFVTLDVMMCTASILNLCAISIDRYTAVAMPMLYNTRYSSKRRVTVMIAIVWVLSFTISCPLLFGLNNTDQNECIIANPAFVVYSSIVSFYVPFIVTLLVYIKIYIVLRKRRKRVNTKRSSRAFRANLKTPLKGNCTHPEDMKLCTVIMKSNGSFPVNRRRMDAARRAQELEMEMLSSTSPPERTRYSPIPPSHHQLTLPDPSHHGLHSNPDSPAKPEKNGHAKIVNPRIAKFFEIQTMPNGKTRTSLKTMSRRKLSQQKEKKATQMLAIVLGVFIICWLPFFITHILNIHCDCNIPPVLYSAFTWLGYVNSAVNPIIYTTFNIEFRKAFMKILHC

As to `COc1ccc2cccc(N3CCN(CCCOC(=O)Nc4ccc5c(c4)OCO5)CC3)c2c1` [Example 34, 1-(7-Methoxy-1-naphthyl)-4-[3-(3,4-methylenedioxyphenylcarbamoyloxy)propyl]piperazine, HCl], the figures for the pIC50 on Alpha1 receptor and at Dopamine D2 receptor were 6.84 and 8.37, respectively.

As to `O=C(Nc1ccc2ncsc2c1)OCCCN1CCN(c2ccc(Cl)cc2)CC1` [Example 19, 4-(4-Chlorophenyl)-1-[3-(6-benzothiazolylcarbamoyloxy)propyl]piperazine, hydrochloride], the pIC50 – broadly, the negative decadic logarithm of the IC50, by convention in mol/L – on Alpha1 receptor was 6.91; at Dopamine D2 receptor, 6.82.

As for `COc1cc(NC(=O)OCCCN2CCN(c3ccc(F)cc3)CC2)cc(OC)c1OC` [Example 8, 4-(4-Fluorophenyl)-1-[3-(3,4,5-trimethoxyphenylcarbamoyloxy)propyl]piperazine, hydrochloride], the figures for the pIC50 at Alpha1 receptor and at Dopamine D2 receptor were 7.21 and 6.14, respectively.

On to `COc1cc(NC(=O)OCCCN2CCN(c3ccccc3Cl)CC2)cc(OC)c1OC.Cl` [Example 3, 4-(2-Chlorophenyl)-1-[3-(3,4,5-trimethoxyphenylcarbamoyloxy)propyl]piperazine, hydrochloride], for which the pIC50 on Alpha1 receptor was 7.35; on Dopamine D2 receptor, 6.92. Further, the ED50 (commonly the midpoint of the dose-response relation) in assay [1] is 12 mg/kg.

Values taken from patent publication US5246935A, “Piperazinyl derivatives and methods of treating central nervous system ailments relating to the 5-HT2 receptor system” (Novo Nordisk A/S, priority 1990, dated 1993).
